According to patent US7247709B2, “Mitogenic oxygenases” (Emory University, priority 1998, dated 2007):

Legend:
human mox1 = molecular target: T1, human mox1 (Homo sapiens, UniProt Q9Y5S8, I173V); experiment: NADPH-dependent superoxide generation, lucigenin luminescence assay in lysates of mox1-transfected NIH 3T3 cells; assay type: biochemical; conditions: lysates of stably mox1-transfected NIH 3T3 cell lines
T1 construct: expressed in transfected cells
T1 sequence (Q9Y5S8 1-564 I173V): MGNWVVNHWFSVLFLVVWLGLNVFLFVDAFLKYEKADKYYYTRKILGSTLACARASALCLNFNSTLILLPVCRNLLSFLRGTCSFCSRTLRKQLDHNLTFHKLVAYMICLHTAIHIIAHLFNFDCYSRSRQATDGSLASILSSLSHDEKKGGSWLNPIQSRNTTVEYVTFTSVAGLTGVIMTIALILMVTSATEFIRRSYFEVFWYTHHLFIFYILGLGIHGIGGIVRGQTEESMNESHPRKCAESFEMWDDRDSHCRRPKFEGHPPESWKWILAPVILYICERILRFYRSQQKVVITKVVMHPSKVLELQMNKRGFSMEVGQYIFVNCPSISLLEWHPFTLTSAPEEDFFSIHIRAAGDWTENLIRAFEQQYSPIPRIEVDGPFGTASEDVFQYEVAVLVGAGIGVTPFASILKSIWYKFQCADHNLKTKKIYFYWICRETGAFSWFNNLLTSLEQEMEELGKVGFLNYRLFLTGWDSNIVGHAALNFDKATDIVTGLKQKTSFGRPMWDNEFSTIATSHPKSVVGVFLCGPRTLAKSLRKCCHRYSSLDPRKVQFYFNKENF
T1 sequence (Q61462 1-192 partner): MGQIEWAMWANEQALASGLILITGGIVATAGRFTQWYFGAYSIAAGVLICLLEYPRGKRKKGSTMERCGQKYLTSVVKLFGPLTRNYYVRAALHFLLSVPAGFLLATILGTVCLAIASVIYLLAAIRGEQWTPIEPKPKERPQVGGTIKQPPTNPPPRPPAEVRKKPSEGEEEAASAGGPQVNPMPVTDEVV
Method: In one embodiment of the present invention, NIH 3T3 cells stably transfected with the human mox1 gene (SEQ ID NO:1) were analyzed for superoxide generation using the lucigenin (Bis-N-methylacridinium luminescence assay (Sigma, St. Louis, Mo., Li et al. (1998) J. Biol. Chem. 273, 2015-2023). Cells were washed with cold HANKS' solution and homogenized on ice in HANKS' buffer containing 15% sucrose using a Dounce homogenizer. Cell lysates were frozen immediately in a dry ice/ethanol bath. For the assay, 30 μg of cell lysate was mixed with 200 μM NADPH and 500 μM lucigenin. Luminescence was monitored using a LumiCounter (Packard) at three successive one minute intervals and the highest value was used for comparison. Protein concentration was determined by the Bradford method.
Superoxide generation was monitored in lysates from some of the stably transfected cell lines and was compared with superoxide generation by the untransfected NIH 3T3 cell lysates. Cell lines 26, 27, and 28 gave the highest degree of morphological changes by microscopic examination corresponding to the highest degree of superoxide generation. The luminescent signal was inhibited by superoxide dismutase and the general flavoprotein inhibitor diphenylene iodonium, but was unaffected by added recombinant human p47phox, p67phox and Rac1 (GTP-γS), which are essential cytosolic factors for the phagocyte respiratory-burst oxidase.

[1] = tested on: superoxide-generating NADPH oxidase activity; experiment: Superoxide generation in lysates of Ras-transformed fibroblasts, lucigenin luminescence assay; assay type: biochemical; conditions: for RLU/5 μg protein, plus DPI: 1 μM DPI; for inhibition of luminescence / activity: lysates of Table 6; for RLU/5 μg protein, plus SOD: 100 U SOD
Method: Lysates from each of these lines were then prepared and tested for their ability to generate superoxide. For each cell line, cells were washed with cold HANKS' balanced salt solution (HBSS), collected by centrifugation, kept on dry-ice for more than 30 min, and disrupted by suspending in low salt buffer (LSB; 50 mM Tris/HCl, pH 7.5, 1 mM PMSF, and protease cocktail from Sigma) and passing through a syringe needle (18 gauge) ten times. Cell lysates were frozen in dry-ice immediately after determining the protein concentration. […] Luminescence of the reaction mixture was monitored for 0.5 second by LumiCounter (Packard) for four times at 3 second intervals. RLU in Table 5 refers to relative luminescence units.

mox1 NADPH-oxidase = molecular target: T2, mox1 NADPH-oxidase (Homo sapiens, UniProt Q9Y5S8, I173V); experiment: Cell-free assay for mox1 NADPH-oxidase activity (NADPH-dependent chemiluminescence of cell lysates); assay type: biochemical; conditions: MgCl2 1-5 mM
T2 construct: expressed in transfected cells
T2 sequence (Q9Y5S8 1-564 I173V): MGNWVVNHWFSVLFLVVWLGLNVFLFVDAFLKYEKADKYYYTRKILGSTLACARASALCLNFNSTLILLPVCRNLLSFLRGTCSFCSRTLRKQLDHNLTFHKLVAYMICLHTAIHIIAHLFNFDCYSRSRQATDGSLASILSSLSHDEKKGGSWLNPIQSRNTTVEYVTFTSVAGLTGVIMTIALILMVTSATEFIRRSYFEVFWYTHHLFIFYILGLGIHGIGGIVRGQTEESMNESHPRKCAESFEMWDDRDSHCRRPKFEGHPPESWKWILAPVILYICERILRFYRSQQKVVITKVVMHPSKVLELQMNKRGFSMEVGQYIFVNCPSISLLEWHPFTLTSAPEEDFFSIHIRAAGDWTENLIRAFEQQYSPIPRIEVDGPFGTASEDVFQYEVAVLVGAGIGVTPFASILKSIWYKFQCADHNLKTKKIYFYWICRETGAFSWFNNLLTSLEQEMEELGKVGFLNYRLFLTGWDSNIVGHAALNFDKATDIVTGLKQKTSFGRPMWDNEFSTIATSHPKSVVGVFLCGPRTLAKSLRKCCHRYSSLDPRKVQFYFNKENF
T2 sequence (Q61462 1-192 partner): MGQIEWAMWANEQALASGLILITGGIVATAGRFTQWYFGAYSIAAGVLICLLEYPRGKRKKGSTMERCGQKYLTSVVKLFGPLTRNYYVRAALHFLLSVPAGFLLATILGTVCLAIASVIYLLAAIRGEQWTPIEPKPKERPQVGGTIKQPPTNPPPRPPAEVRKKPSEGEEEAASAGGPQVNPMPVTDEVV
Method: In an alternate and preferred embodiment of the present invention, cells that had been stably transfected with mox1 (YA28) or with empty vector (NEF2) were grown in 10 cm tissue culture plates in medium containing DMEM, 10% calf serum, 100 units/ml penicillin, 100 μg/ml streptomycin, and 1 μg/ml puromycin to approximately 80% confluency. Cells (five tissue culture plates of each cell type) were washed briefly with 5 ml phosphate buffered saline (PBS) then dissociated from the plates with PBS containing 5 mM EDTA. Cells were pelleted by centrifuging briefly at 1000×g.
To permeabilize the cells, freeze thaw lysis was carried out and this was followed by passage of the cell material through a small bore needle. The supernatant was removed and the cells were frozen on dry ice for 15 minutes. […]
The cell lysates were assayed for protein concentration using the BioRad protein assay system. […] The reaction was initiated by adding 1.5 mM NADPH and 75 μM lucigenin to the assay mix to give a final concentration of 200 μM NADPH and 10 μM lucigenin, and the chemiluminescence was monitored immediately. […] The plate was monitored continuously for 60 minutes and the maximal relative luminescence unit (RLU) value for each sample was used for the graph. […]

r-p65mox mRNA = experiment: Expression of r-p65mox mRNA in rat aortic smooth muscle cells (Northern blot); assay type: cell-based
Method: Human multiple tissue northern (MTN) Blot I and Human MTN Blot IV (ClonTech) membranes were hybridized with the putative coding region of the PCR-mox vector at 68° C. for several hours. The mox coding region was labeled by random priming with [α-^32P]dCTP (10 μCi) using the Prime-It II kit (Stratagene). For analysis of mox1 expression in cell lines, total RNA was prepared from 10^6 cells using the High Pure RNA Isolation Kit (Boehringer Mannheim) or RNeasy kit (Quiagen). Total RNA (10-20 μg) was separated on a 1% agarose formaldehyde mini-gel and transferred to a Nytran filter (Biorad) and immobilized by ultraviolet cross-linking.
Using the partial cDNA clone from rat, we have examined cultured rat aortic smooth muscle cells for expression of message for r-p65mox. We have observed the mRNA for r-p65mox in these cells. It has been previously reported (Griendling et al. (1994) Circ. Res. 74, 1141-1148; Fukui et al. (1997) Circ. Res. 80, 45-51; Ushio-Fukai et al. (1996) J. Biol. Chem. 271, 23317-23321) that in vitro or in vivo treatment with angiotensin II (AII) is a growth stimulus for vascular smooth muscle cells, and that AII induces increased superoxide generation in these cells. Platelet-derived growth factor (PDGF) and PMA are proliferative signals for vascular smooth muscle cells. We observed that the mRNA for r-p65mox was induced approximately 2-3 fold by angiotensin II (100 nM), corresponding to the increased level of superoxide generation. Thus, the increased superoxide generation in these cells correlates with increased expression of the mRNA for this enzyme. […] 28S RNA was used as a control for RNA recovery.

[2] = tested on: NIH 3T3 cells transfected with the mox1 cDNA (SEQ ID NO:1); experiment: Nitro blue tetrazolium reduction by superoxide generated by intact NIH 3T3 cells transfected with mox1 cDNA; assay type: cell-based; conditions: 600 units superoxide dismutase
Method: Superoxide generation by intact cells was monitored by using superoxide dismutase-sensitive reduction of nitroblue tetrazolium. NEF2 (vector alone control), YA26 (mox1 (SEQ ID NO:1)-transfected) and YA28 (mox1 (SEQ ID NO:1)-transfected) cells were plated in six well plates at 500,000 cells per well. About 24 hours later, medium was removed from cells and the cells were washed once with 1 mL Hanks solution (Sigma, St. Louis, Mo.). About 1 mL of filtered 0.25% Nitro blue tetrazolium (NBT, Sigma) was added in Hanks without or with 600 units of superoxide dismutase (Sigma) and cells were incubated at 37° C. in the presence of 5% CO2. After 8 minutes the cells were scraped and pelleted at more than 10,000 g. The pellet was re-suspended in 1 mL of pyridine (Sigma) and heated for 10 minutes at 100° C. to solubilize the reduced NBT. The concentration of reduced NBT was determined by measuring the absorbance at 510 nm, using an extinction coefficient of 11,000 M^−1cm^−1. Some wells were untreated and used to determine cell number.

For c1ccc2c(c1)[I+]c1ccccc1-2 [DPI, diphenyleneiodonium], the “effect of added agent on the luminescent signal” value (from here on “effect of added agent”) (human mox1) was “inhibited”, the “RLU/5 μg protein, plus DPI” value ([1]; V12-Ras-4 lysate) was 36 RLU/5 μg protein and the “RLU/5 μg protein, plus DPI” value ([1]; V12-Ras-7 lysate) was 39 RLU/5 μg protein. The “RLU/5 μg protein, plus DPI” value ([1]; V12-Ras-8 lysate) was 35 RLU/5 μg protein, the “RLU/5 μg protein, plus DPI” value ([1]; Vector Control lysate) was 48 RLU/5 μg protein and the “inhibition of luminescence / activity” value [1] was “completely inhibited”.

For [Cl-].[Cl-].[Mg+2] [MgCl2], the “enhancement of NADPH-oxidase activity” value (mox1 NADPH-oxidase) was “about 2 fold”.

For PDGF, the “induction of rat mox1 message, quantitation by densitometry” value (r-p65mox mRNA; 6 and 12 hour time points) was roughly 4 fold, the “increase of mRNA for r-p65mox” value (r-p65mox mRNA; PDGF 20 ng/ml) was no less than 2 fold and the “Northern hybridization of mox1 mRNA from rat aortic smooth muscle cells” value (r-p65mox mRNA; within 12 hours after treatment) was “increased roughly two-fold”.

“angiotensin II (DRVYIHPF; Angiotensin-2; UniProt P01019 25-32, looked up) [growth stimulus for vascular smooth muscle cells]” was tested, and the “induction of rat mox1 message, quantitation by densitometry” value (r-p65mox mRNA; 12 hour time point) was “approximately 2 fold”.

With superoxide dismutase the “effect of added agent” value (human mox1) was “inhibited”, the “NBT Reduction, +SOD” value ([2]; YA26 (mox1) cells) was 3.4 ± 0.1 nmols/10^6 cells and the “NBT Reduction, +SOD” value ([2]; YA28 (mox1) cells) was 3.4 ± 0.3 nmols/10^6 cells. The “NBT Reduction, +SOD” value ([2]; vector control cells) was 2.1 ± 0.5 nmols/10^6 cells, the “RLU/5 μg protein, plus SOD” value ([1]; V12-Ras-4 lysate) was 2128 RLU/5 μg protein and the “RLU/5 μg protein, plus SOD” value ([1]; V12-Ras-7 lysate) was 578 RLU/5 μg protein. For the same molecule, the “RLU/5 μg protein, plus SOD” value ([1]; V12-Ras-8 lysate) was 2000 RLU/5 μg protein, the “RLU/5 μg protein, plus SOD” value ([1]; Vector Control lysate) was 154 RLU/5 μg protein and the “inhibition of luminescence / activity” value [1] was “partially inhibited”.

B1: p47phox: recombinant human p47phox, essential cytosolic factor for the phagocyte respiratory-burst oxidase (protein, UniProt P14598 1-390, looked up)
Neutrophil cytosol factor 1: MGDTFIRHIALLGFEKRFVPSQHYVYMFLVKWQDLSEKVVYRRFTEIYEFHKTLKEMFPIEAGAINPENRIIPHLPAPKWFDGQRAAENRQGTLTEYCSTLMSLPTKISRCPHLLDFFKVRPDDLKLPTDNQTKKPETYLMPKDGKSTATDITGPIILQTYRAIANYEKTSGSEMALSTGDVVEVVEKSESGWWFCQMKAKRGWIPASFLEPLDSPDETEDPEPNYAGEPYVAIKAYTAVEGDEVSLLEGEAVEVIHKLLDGWWVIRKDDVTGYFPSMYLQKSGQDVSQAQRQIKRGAPPRRSSIRNAHSIHQRSRKRLSQDAYRRNSVRFLQQRRRQARPGPQSPGSPLEEERQTQRSKPQPAVPPRPSADLILNRCSESTKRKLASAV
For B1, the “effect of added agent” value (human mox1) was “unaffected”.

B2: p67phox: recombinant human p67phox, essential cytosolic factor for the phagocyte respiratory-burst oxidase (protein, UniProt P19878 1-526, looked up)
Neutrophil cytosol factor 2: MSLVEAISLWNEGVLAADKKDWKGALDAFSAVQDPHSRICFNIGCMYTILKNMTEAEKAFTRSINRDKHLAVAYFQRGMLYYQTEKYDLAIKDLKEALIQLRGNQLIDYKILGLQFKLFACEVLYNIAFMYAKKEEWKKAEEQLALATSMKSEPRHSKIDKAMECVWKQKLYEPVVIPVGKLFRPNERQVAQLAKKDYLGKATVVASVVDQDSFSGFAPLQPQAAEPPPRPKTPEIFRALEGEAHRVLFGFVPETKEELQVMPGNIVFVLKKGNDNWATVMFNGQKGLVPCNYLEPVELRIHPQQQPQEESSPQSDIPAPPSSKAPGRPQLSPGQKQKEEPKEVKLSVPMPYTLKVHYKYTVVMKTQPGLPYSQVRDMVSKKLELRLEHTKLSYRPRDSNELVPLSEDSMKDAWGQVKNYCLTLWCENTVGDQGFPDEPKESEKADANNQTTEPQLKKGSQVEALFSYEATQPEDLEFQEGDIILVLSKVNEEWLEGECKGKVGIFPKVFVEDCATTDLESTRREV
For B2, the “effect of added agent” value (human mox1) was “unaffected”.
